The assay concerns the target T1, human M5 receptors (hM5) (Homo sapiens, UniProt P08912).
T1 construct: expressed in transfected cells
T1 sequence (P08912 1-532): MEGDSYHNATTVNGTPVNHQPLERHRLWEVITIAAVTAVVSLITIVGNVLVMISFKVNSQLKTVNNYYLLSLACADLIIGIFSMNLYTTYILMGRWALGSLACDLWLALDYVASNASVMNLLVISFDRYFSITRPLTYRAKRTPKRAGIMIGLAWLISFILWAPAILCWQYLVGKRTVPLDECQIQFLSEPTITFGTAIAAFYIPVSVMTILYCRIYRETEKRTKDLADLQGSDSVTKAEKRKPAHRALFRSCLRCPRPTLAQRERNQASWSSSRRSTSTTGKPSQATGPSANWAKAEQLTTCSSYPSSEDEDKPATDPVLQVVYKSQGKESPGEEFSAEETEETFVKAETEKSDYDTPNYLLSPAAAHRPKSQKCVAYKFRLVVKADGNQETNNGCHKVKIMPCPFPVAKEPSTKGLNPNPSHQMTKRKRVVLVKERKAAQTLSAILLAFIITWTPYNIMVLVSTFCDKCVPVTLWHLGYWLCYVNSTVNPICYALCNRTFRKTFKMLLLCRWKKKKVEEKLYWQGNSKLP
The assay is described as follows: Cell-based functional calcium mobilization assay of mAChR M5 activity (inhibition of EC80 acetylcholine response) in CHO cells. As to conditions: CHO cells stably expressing hM5; for IC50: calcium flux (Fluo-4), EC80 acetylcholine addition; for EC80 MIN: minimum of EC80 acetylcholine response, normalized to maximum acetylcholine response. The method in brief:
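CHO cells stably expressing human M5, loaded with Fluo-4 AM in HBSS/20 mM HEPES/2.5 mM probenecid pH 7.4. Compound added 140 s before acetylcholine EC20, then EC80 added 125 s later. Calcium flux normalized to maximal acetylcholine response; IC50 from ten-point curves in the EC80 window.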

Some results are limits rather than exact numbers.

Consider 29 compounds from patent US20230303552A1, “ARYLSULFONYL DERIVATIVES AND THEIR USE AS MUSCARINIC ACETYLCHOLINE RECEPTOR M5 INHIBITORS” (Vanderbilt University, priority 2020, published 2023).

In general, IC50 refers to the concentration that gives 50% inhibition.

`O=C(Nc1ccc2scnc2c1)C1CCN(S(=O)(=O)c2ccccc2OC(F)(F)F)CC1` [Compound 53, N-(benzo[d]thiazol-5-yl)-1-((2-(trifluoromethoxy)phenyl)sulfonyl)piperidine-4-carboxamide]: the IC50 came to 4110 nM and the “EC80 MIN” value worked out at 4%.

`O=C(Nc1ccc2scnc2c1)C1CCN(S(=O)(=O)c2cccc(C(F)(F)F)c2)CC1` [Compound 54, N-(benzo[d]thiazol-5-yl)-1-((3-(trifluoromethyl)phenyl)sulfonyl)piperidine-4-carboxamide]: the IC50 is > 10000 nM and the “EC80 MIN” value amounted to 51%.

Take `O=C(Nc1ccc2scnc2c1)[C@H]1CCN(S(=O)(=O)c2ccc3c(c2)CCO3)C1` [Compound 55, (S)-N-(benzo[d]thiazol-5-yl)-1-((2,3-dihydrobenzofuran-5-yl)sulfonyl)pyrrolidine-3-carboxamide]: the IC50 amounted to 361 nM and the “EC80 MIN” value turned out to be 3%.

`O=C(Nc1ccc2scnc2c1)[C@H]1CCN(S(=O)(=O)c2cc3c(cc2F)OCC3)C1` [Compound 56, (S)-N-(benzo[d]thiazol-5-yl)-1-((6-fluoro-2.3-dihydrobenzofuran-5-yl)sulfonyl)pyrrolidine-3-carboxamide]: the IC50 is 719 nM and the “EC80 MIN” value is 2%.

As for `O=C(Nc1ccc2scnc2c1)C1CCN(S(=O)(=O)c2ccc3c(c2Br)CCO3)CC1` [Compound 57, N-(benzo[d]thiazol-5-yl)-1-((4-bromo-2,3-dihydrobenzofuran-5-yl)sulfonyl)piperidine-4-carboxamide], the concentration for half-maximal inhibition (IC50) was 333 nM and the “EC80 MIN” value turned out to be 2%.

Consider `O=C(Nc1ccc2scnc2c1)C1CCN(S(=O)(=O)c2ccc(Br)c3c2OCC3)CC1` [Compound 58, N-(benzo[d]thiazol-5-yl)-1-((4-bromo-2,3-dihydrobenzofuran-7-yl)sulfonyl)piperidine-4-carboxamide], for which the half-inhibitory concentration (IC50) was > 10000 nM and the “EC80 MIN” value amounted to 34%.

Take `O=C(Nc1ccc2scnc2c1)[C@@H]1CCN(S(=O)(=O)c2ccc3c(c2Br)CCO3)C1` [Compound 59, (R)-N-(benzo[d]thiazol-5-yl)-1-((4-bromo-2,3-dihydrobenzofuran-5-yl)sulfonyl)pyrrolidine-3-carboxamide]: the IC50 came out at 487 nM and the “EC80 MIN” value was determined as 2%.

Regarding `O=C(Nc1ccc2scnc2c1)[C@@H]1CCN(S(=O)(=O)c2ccc(Br)c3c2OCC3)C1` [Compound 60, (R)-N-(benzo[d]thiazol-5-yl)-1-((4-bromo-2,3-dihydrobenzofuran-7-yl)sulfonyl)pyrrolidine-3-carboxamide], the IC50 is > 10000 nM and the “EC80 MIN” value turned out to be 31%.

Regarding `O=C(Nc1ccc2scnc2c1)C1CCN(S(=O)(=O)c2c(Cl)ccc3nonc23)CC1` [Compound 61, N-(benzo[d]thiazol-5-yl)-1-((5-chlorobenzo[c][1,2,5]oxadiazol-4-yl)sulfonyl)piperidine-4-carboxamide], the 50% inhibitory concentration (IC50) was > 10000 nM and the “EC80 MIN” value was found to be 60%.

For the compound `COc1ccc(S(=O)(=O)N2CCC(C(=O)Nc3ccc4scnc4c3)CC2)c(C)c1` [Compound 62, N-(benzo[d]thiazol-5-yl)-1-((4-methoxy-2-methylphenyl)sulfonyl)pipe ridine-4-carboxamide], the IC50 was > 10000 nM and the “EC80 MIN” value was 22%.

On to `O=C(Nc1ccc2scnc2c1)C1CCN(S(=O)(=O)c2cccc(F)c2)CC1` [Compound 63, N-(benzo[d]thiazol-5-yl)-1-((3-fluorophenyl)sulfonyl)piper idine-4-carboxamide], for which the IC50 turned out to be 2550 nM and the “EC80 MIN” value stood at 2%.

For the compound `O=C(Nc1ccc2scnc2c1)C1CCN(S(=O)(=O)c2ccccc2C(F)(F)F)CC1` [Compound 64, N-(benzo[d]thiazol-5-yl)-1-((2-(trifluoromethyl)phenyl)sulfonyl)piperidine-4-carboxamide], the half-inhibitory concentration (IC50) is > 10000 nM and the “EC80 MIN” value stood at 2%.

`O=C(Nc1ccc2scnc2c1)C1CCN(S(=O)(=O)c2ccccc2Cl)CC1` [Compound 65, N-(benzo[d]thiazol-5-yl)-1-((2-chlorophenyl)sulfonyl)piper idine-4-carboxamide]: the IC50 amounted to 652 nM and the “EC80 MIN” value is 2%.

As for `O=C(Nc1ccc2scnc2c1)C1CCN(S(=O)(=O)c2ccc(Cl)cc2)CC1` [Compound 66, N-(benzo[d]thiazol-5-yl)-1-((4-chlorophenyl)sulfonyl)piper idine-4-carboxamide], the concentration for half-maximal inhibition (IC50) was > 10000 nM and the “EC80 MIN” value turned out to be 16%.

`O=C(Nc1ccc2scnc2c1)C1CCN(S(=O)(=O)c2ccc(F)cc2)CC1` [Compound 67, N-(benzo[d]thiazol-5-yl)-1-((4-fluorophenyl)sulfonyl)piper idine-4-carboxamide]: the concentration for half-maximal inhibition (IC50) was > 10000 nM and the “EC80 MIN” value is reported as 7%.

Turning to `O=C(Nc1ccc2scnc2c1)C1CCN(S(=O)(=O)c2ccccn2)CC1` [Compound 68, N-(benzo[d]thiazol-5-yl)-1-(pyridin-2-ylsulfonyl)piperidine-4-carboxamide], the IC50 was > 10000 nM and the “EC80 MIN” value is recorded as 39%.

`O=C(Nc1ccc2scnc2c1)[C@@H]1CCN(S(=O)(=O)c2cc(I)c3c(c2)CCO3)C1` [Compound 74, (R)-N-(benzo[d]thiazol-5-yl)-1((7-iodo-2,3-dihydrobenzofuran-5-yl)sulfonyl)pyrrolidine-3-carboxamide]: the IC50 came to 895 nM and the “EC80 MIN” value came to 2%.

Regarding `O=C(Nc1ccc2scnc2c1)[C@@H]1CCN(S(=O)(=O)c2ccc(Cl)nc2)C1` [Compound 76, (R)-N-(benzo[d]thiazol-5-yl)-1-((6-chloropyridin-3-yl)sulfonyl)pyrrolidine-3-carboxamide], the IC50 is > 10000 nM and the “EC80 MIN” value was determined as 23%.

For `C[C@H]1CN(S(=O)(=O)c2ccc3c(c2)CCO3)C[C@@H]1C(=O)Nc1ccc2scnc2c1` [Compound 78], the IC50 was determined as 76 nM and the “EC80 MIN” value came out at 3%.

Regarding `Cc1cc(S(=O)(=O)N2CC[C@@H](C(=O)Nc3ccc4scnc4c3)C2)cc2c1OCC2` [Compound 83, (R)-N-(benzo[d]thiazol-5-yl)-1-((7-methyl-2,3-dihydrobenzofuran-5-yl)sulfonyl)pyrrolidine-3-carboxamide], the IC50 turned out to be 1460 nM and the “EC80 MIN” value stood at 3%.

Take `CN(C(=O)C1CCN(S(=O)(=O)c2ccc3c(c2)CCO3)CC1)c1ccc2scnc2c1` [Compound 84, N-(Benzo[d]thiazol-5-yl)-1-((2,3-Dihydrobenzofuran-5-yl)Sulfonyl)-N-Methylpiperidine-4-Carboxamide]: the IC50 was > 10000 nM.

Consider `CC(=O)N(C(=O)C1CCN(S(=O)(=O)c2ccc3c(c2)CCO3)CC1)c1ccc2scnc2c1` [Compound 85, N-Acetyl-N-(Benzo[d]thiazol-5-yl)-1-((2,3-Dihydrobenzofuran-5-yl)Sulfonyl)Piperidine-4-Carboxamide], for which the concentration for half-maximal inhibition (IC50) came to 1750 nM and the “EC80 MIN” value stood at 3%.

For `O=C(Nc1cnc2cc[nH]c2c1)C1CCN(S(=O)(=O)c2ccc3c(c2)CCO3)CC1` [Compound 89, 1-((2,3-dihydrobenzofuran-5-yl)sulfonyl)-N-(1H-pyrrolo[3,2-b]pyridin-6-yl)piperidine-4-carboxamide], the concentration for half-maximal inhibition (IC50) was > 10000 nM and the “EC80 MIN” value is given as 79%.

As to `O=C(Nc1cnc2[nH]ccc2c1)C1CCN(S(=O)(=O)c2ccc3c(c2)CCO3)CC1` [Compound 90, 1-((2,3-dihydrobenzofuran-5-yl)sulfonyl)-N-(1H-pyrrolo[2,3-b]pyridin-5-yl)piperidine-4-carboxamide], the IC50 was > 10000 nM and the “EC80 MIN” value is reported as 69%.

As to `Cc1nc2cc(NC(=O)C3CCN(S(=O)(=O)c4ccc5c(c4)CCO5)CC3)ccc2s1` [Compound 91, 1-((2,3-Dihydrobenzofuran-5-yl)Sulfonyl)-N-(2-Methylbenzo[d]thiazol-5-yl)Piperidine-4-Carboxamide], the concentration for half-maximal inhibition (IC50) amounted to 138 nM and the “EC80 MIN” value came out at 17%.

Turning to `O=C(Nc1ccc2snnc2c1)C1CCN(S(=O)(=O)c2ccc3c(c2)CCO3)CC1` [Compound 100], the half-maximal inhibitory concentration (IC50) was found to be 129 nM and the “EC80 MIN” value was determined as 14%.

As to `Cc1cc2scnc2cc1NC(=O)C1CCN(S(=O)(=O)c2ccc3c(c2)CCO3)CC1` [Compound 101, 1-((2,3-dihydrobenzofuran-5-yl)sulfonyl)-N-(6-methylbenzo[d]thiazol-5-yl)piperidine-4-carboxamide], the half-inhibitory concentration (IC50) is > 10000 nM and the “EC80 MIN” value is recorded as 49%.

Turning to `O=C(Nc1cnc2scnc2c1)C1CCN(S(=O)(=O)c2ccc3c(c2)CCO3)CC1` [Compound 102, 1-((2,3-dihydrobenzofuran-5-yl)sulfonyl)-N-(thiazolo[5,4-b]pyridin-6-yl)piperidine-4-carboxamide], the IC50 is > 10000 nM and the “EC80 MIN” value is listed as 56%.

For `CC1(C(=O)Nc2ccc3scnc3c2)CCN(S(=O)(=O)c2ccc3c(c2)CCO3)CC1` [Compound 104, N-(benzo[d]thiazol-5-yl)-1-((2,3-dihydrobenzofuran-5-yl)sulfonyl)-4-methylpiperidine-4-carboxamide], the IC50 was > 10000 nM and the “EC80 MIN” value is given as 3%.
